From PubChem BioAssay AID330 (DTP/NCI, 2004)
Values joined by “and” are separate entries in the source; they are usually repeats but may differ in a detail not shown here. Equal entries are not always repeated. Toxic doses and inconclusive results are not listed.

System: P388 leukemia ip, CD2F1 mice, survival T/C
Experiment: NCI In Vivo Anticancer Drug Screen. Data for tumor model P388 Leukemia (intraperitoneal) in CD2F1 (CDF1) mice
Details: endpoint: median survival time, higher = longer survival
Procedure, shortened: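 Mice carrying the transplanted tumor received test compound or vehicle. Survival was recorded in each group, and the value is the treated-group measurement divided by that of the vehicle-treated control group.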

[1] = dose: 100.0 mg/kg/injection, schedule: Q01DX009 (ip), vehicle: saline with Tween-80
[2] = dose: 200.0 mg/kg/injection, schedule: Q01DX009 (ip), vehicle: saline with Tween-80
[3] = dose: 12.5 mg/kg/injection, schedule: Q01DX009 (ip), vehicle: saline with Tween-80
[4] = dose: 25.0 mg/kg/injection, schedule: Q01DX009 (ip), vehicle: saline with Tween-80
[5] = dose: 50.0 mg/kg/injection, schedule: Q01DX009 (ip), vehicle: Klucel (hydroxypropylcellulose) (HPC)
[6] = dose: 100.0 mg/kg/injection, schedule: Q01DX009 (ip), vehicle: Klucel (hydroxypropylcellulose) (HPC)
[7] = dose: 200.0 mg/kg/injection, schedule: Q01DX009 (ip), vehicle: Klucel (hydroxypropylcellulose) (HPC)

COc1ccc(CCN(C)CCCC(C#N)(c2ccc(OC)c(OC)c2)C(C)C)cc1OC (stereo unspecified)
T/C (dose: 1.0 mg/kg/injection, schedule: Q02HX018 (sc), vehicle: water): 99 % of control | T/C (dose: 2.0 mg/kg/injection, schedule: Q02HX018 (sc), vehicle: water): 99 % of control | T/C (dose: 4.0 mg/kg/injection, schedule: Q02HX006 (sc), vehicle: saline with Tween-80): 100 % of control | T/C (dose: 4.0 mg/kg/injection, schedule: Q02HX018 (sc), vehicle: water): 103 % of control | T/C (dose: 8.0 mg/kg/injection, schedule: Q02HX006 (sc), vehicle: saline with Tween-80): 96 % of control | T/C (dose: 8.0 mg/kg/injection, schedule: Q02HX018 (sc), vehicle: water): 110 % of control | T/C (dose: 8.0 mg/kg/injection, schedule: Q03HX006 (ip), vehicle: saline): 104 % of control | T/C (dose: 16.0 mg/kg/injection, schedule: Q02HX006 (sc), vehicle: saline with Tween-80): 106 % of control | T/C (dose: 16.0 mg/kg/injection, schedule: Q02HX018 (sc), vehicle: water): 108 % of control | T/C (dose: 16.0 mg/kg/injection, schedule: Q03HX006 (ip), vehicle: saline): 101 % of control | T/C (dose: 32.0 mg/kg/injection, schedule: Q02HX006 (sc), vehicle: saline with Tween-80): 82 % of control | T/C (dose: 32.0 mg/kg/injection, schedule: Q03HX006 (ip), vehicle: saline): 103 % of control | T/C (dose: 64.0 mg/kg/injection, schedule: Q02HX006 (sc), vehicle: saline with Tween-80): 19 % of control

CCOC(=O)CC(=O)N(CC)CC
T/C [1]: 104 % of control | T/C [2]: 100 % of control | T/C (dose: 400.0 mg/kg/injection, schedule: Q01DX009 (ip), vehicle: saline with Tween-80): 95 % of control

NC(=S)N/N=C/c1c(Br)n(-c2ccccc2)c2ccccc12
T/C (dose: 100.0 mg/kg/injection, schedule: Q01DX001 (ip), vehicle: Klucel (hydroxypropylcellulose) (HPC)): 94 % of control | T/C (dose: 200.0 mg/kg/injection, schedule: Q01DX001 (ip), vehicle: Klucel (hydroxypropylcellulose) (HPC)): 98 % of control | T/C (dose: 400.0 mg/kg/injection, schedule: Q01DX001 (ip), vehicle: Klucel (hydroxypropylcellulose) (HPC)): 91 % of control

Cn1c(=O)cc(NC2OC(CO)C(O)C(O)C2O)[nH]c1=O (stereo unspecified)
T/C (dose: 60.0 mg/kg/injection, schedule: Q01DX005 (ip), vehicle: saline): 97 % of control | T/C (dose: 120.0 mg/kg/injection, schedule: Q01DX005 (ip), vehicle: saline): 97 % of control | T/C (dose: 240.0 mg/kg/injection, schedule: Q01DX005 (ip), vehicle: saline): 99 % of control

COc1ccc(C2=CC(=O)N(C(C)C)C2=O)cc1
T/C [3]: 107 % of control | T/C [4]: 116 % of control | T/C (dose: 50.0 mg/kg/injection, schedule: Q01DX009 (ip), vehicle: saline with Tween-80): 107 % of control | T/C [1]: 108 % of control | T/C [2]: 109 % of control

O=C(/C=C/c1ccc(Cl)c(Cl)c1)C1CCCCC1
T/C [5]: 103 % of control | T/C [6]: 99 % of control

COc1ccc2c(c1O)-c1cccc3c1[C@@H](C2)N(CCCl)CC3
T/C (dose: 1.0 mg/kg/injection, schedule: Q01DX009 (ip), vehicle: Klucel (hydroxypropylcellulose) (HPC)): 101 % of control and 105 % of control | T/C (dose: 2.0 mg/kg/injection, schedule: Q01DX009 (ip), vehicle: Klucel (hydroxypropylcellulose) (HPC)): 99 % of control and 101 % of control | T/C (dose: 4.0 mg/kg/injection, schedule: Q01DX009 (ip), vehicle: Klucel (hydroxypropylcellulose) (HPC)): 106 % of control and 113 % of control | T/C (dose: 4.0 mg/kg/injection, schedule: Q01DX009 (ip), vehicle: saline): 151 % of control | T/C (dose: 6.25 mg/kg/injection, schedule: Q04DX003 (ip), vehicle: other): 104 % of control and 118 % of control | T/C (dose: 8.0 mg/kg/injection, schedule: Q01DX009 (ip), vehicle: Klucel (hydroxypropylcellulose) (HPC)): 106 % of control | T/C (dose: 8.0 mg/kg/injection, schedule: Q01DX009 (ip), vehicle: saline): 114 % of control and 120 % of control | T/C (dose: 12.5 mg/kg/injection, schedule: Q04DX003 (ip), vehicle: other): 90 % of control | T/C (dose: 25.0 mg/kg/injection, schedule: Q04DX003 (ip), vehicle: other): 116 % of control

O=C(NC(CCS(=O)(=O)NO)C(=O)OCc1ccccc1)OCc1ccccc1 (stereo unspecified)
T/C (dose: 12.5 mg/kg/injection, schedule: Q01DX009 (ip), vehicle: other): 100 % of control | T/C (dose: 25.0 mg/kg/injection, schedule: Q01DX009 (ip), vehicle: other): 95 % of control | T/C (dose: 50.0 mg/kg/injection, schedule: Q01DX009 (ip), vehicle: other): 109 % of control | T/C (dose: 100.0 mg/kg/injection, schedule: Q01DX009 (ip), vehicle: other): 95 % of control | T/C (dose: 200.0 mg/kg/injection, schedule: Q01DX009 (ip), vehicle: other): 92 % of control

CCCCN(CCCC)CCC(O)c1cc(-c2ccc(C(F)(F)F)cc2)nc(C(F)(F)F)c1 (stereo unspecified)
T/C (dose: 6.25 mg/kg/injection, schedule: Q01DX009 (ip), vehicle: saline with Tween-80): 89 % of control | T/C [3]: 94 % of control | T/C [4]: 110 % of control

CC(=O)N1C=CC(=Cc2ccccc2)C=C1
T/C [5]: 98 % of control | T/C [6]: 98 % of control | T/C [7]: 99 % of control

NC(=O)NCCSc1ccc(SCCNC(N)=O)nn1
T/C [5]: 109 % of control | T/C [6]: 100 % of control | T/C [7]: 98 % of control | T/C (dose: 400.0 mg/kg/injection, schedule: Q01DX009 (ip), vehicle: Klucel (hydroxypropylcellulose) (HPC)): 90 % of control

CCCCCCCCCCC[N+]1(CC)CCCC1
T/C (dose: 0.19 mg/kg/injection, schedule: Q01DX009 (ip), vehicle: saline): 103 % of control | T/C (dose: 0.39 mg/kg/injection, schedule: Q01DX009 (ip), vehicle: saline): 98 % of control and 109 % of control | T/C (dose: 0.78 mg/kg/injection, schedule: Q01DX009 (ip), vehicle: saline): 98 % of control and 104 % of control and 115 % of control | T/C (dose: 1.56 mg/kg/injection, schedule: Q01DX009 (ip), vehicle: saline): 99 % of control | T/C (dose: 3.12 mg/kg/injection, schedule: Q01DX009 (ip), vehicle: saline): 111 % of control

N/N=C1\c2ccccc2-c2cccc(O)c21
T/C (dose: 7.5 mg/kg/injection, schedule: Q01DX005 (ip), vehicle: saline with Tween-80): 101 % of control | T/C (dose: 15.0 mg/kg/injection, schedule: Q01DX005 (ip), vehicle: saline with Tween-80): 97 % of control | T/C (dose: 30.0 mg/kg/injection, schedule: Q01DX005 (ip), vehicle: saline with Tween-80): 93 % of control

CC1CC(C)(C)C(c2ccccc2)C(=O)O1 (stereo unspecified)
T/C (dose: 100.0 mg/kg/injection, schedule: Q04DX003 (ip), vehicle: Klucel (hydroxypropylcellulose) (HPC)): 106 % of control | T/C (dose: 200.0 mg/kg/injection, schedule: Q04DX003 (ip), vehicle: Klucel (hydroxypropylcellulose) (HPC)): 100 % of control | T/C (dose: 400.0 mg/kg/injection, schedule: Q04DX003 (ip), vehicle: Klucel (hydroxypropylcellulose) (HPC)): 114 % of control

COc1cccc(C(=O)CCN(C)C)c1
T/C (dose: 50.0 mg/kg/injection, schedule: Q01DX009 (ip), vehicle: saline): 98 % of control and 106 % of control | T/C (dose: 100.0 mg/kg/injection, schedule: Q01DX009 (ip), vehicle: saline): 99 % of control and 105 % of control

C[n+]1cccc(C2=CCCC2)c1
T/C (dose: 3.13 mg/kg/injection, schedule: Q01DX009 (ip), vehicle: saline): 109 % of control | T/C (dose: 6.25 mg/kg/injection, schedule: Q01DX009 (ip), vehicle: saline): 100 % of control | T/C (dose: 12.5 mg/kg/injection, schedule: Q01DX009 (ip), vehicle: saline): 100 % of control | T/C (dose: 12.5 mg/kg/injection, schedule: Q04DX003 (ip), vehicle: water): 102 % of control | T/C (dose: 25.0 mg/kg/injection, schedule: Q01DX009 (ip), vehicle: saline): 100 % of control | T/C (dose: 25.0 mg/kg/injection, schedule: Q04DX003 (ip), vehicle: saline with Tween-80): 93 % of control | T/C (dose: 25.0 mg/kg/injection, schedule: Q04DX003 (ip), vehicle: water): 97 % of control | T/C (dose: 50.0 mg/kg/injection, schedule: Q04DX003 (ip), vehicle: saline with Tween-80): 92 % of control | T/C (dose: 100.0 mg/kg/injection, schedule: Q04DX003 (ip), vehicle: saline with Tween-80): 97 % of control | T/C (dose: 200.0 mg/kg/injection, schedule: Q04DX003 (ip), vehicle: saline with Tween-80): 105 % of control

[Cl][Pt+2][Cl].[NH-]c1ccc(C(=O)O)cc1[NH-]
T/C (dose: 6.25 mg/kg/injection, schedule: Q04DX002 (ip), vehicle: saline with Tween-80): 100 % of control | T/C (dose: 12.5 mg/kg/injection, schedule: Q04DX002 (ip), vehicle: saline with Tween-80): 102 % of control | T/C (dose: 25.0 mg/kg/injection, schedule: Q04DX002 (ip), vehicle: saline with Tween-80): 100 % of control | T/C (dose: 50.0 mg/kg/injection, schedule: Q04DX002 (ip), vehicle: saline with Tween-80): 110 % of control | T/C (dose: 100.0 mg/kg/injection, schedule: Q04DX002 (ip), vehicle: saline with Tween-80): 120 % of control
